Patent US20150359794A1, “IMPAIRMENT OF THE LARGE RIBOSOMAL SUBUNIT PROTEIN RPL24 BY DEPLETION OR ACETYLATION” (Buck Institute for Research on Aging, priority 2014, published 2015)

Assays:
[1] = system: cyclin D1, survivin, and NBS1; assay: Western blot of cap (eIF4E)-dependently translated proteins; format: cell-based, human; conditions: SKBR3 cells
Protocol: Since the translation-dependent checkpoint mechanism remains undefined, the impact of RPL24 depletion in a model human breast cancer cell line, SKBR3, sensitive to eIF4E-regulated and cap-dependent translation inhibition was evaluated. Two different RPL24-directed shRNA-expressing lentiviruses were used to decrease RPL24 protein expression by approximately 70% (FIG. 2a). […] Associated with RPL24 depletion and growth inhibition was a marked reduction in the expression of three different eIF4E-regulated and cap-dependent transcripts necessary for cell proliferation (75% reduction in cyclin D1), survival (46% reduction in survivin), and DNA repair and integrity (30% reduction in NBS1). Protein levels of two housekeeping genes not regulated by eIF4E, GAPDH and β-tubulin, were not affected by RPL24 depletion (FIG. 2a).
Cells are lysed in RIPA buffer (10 mM Tris-HCL (pH 8.0), 1 mM EDTA, 0.5 mM EGTA, 1% triton X-100, 0.1% sodium deoxycholate, 0.1% SDS, 140 mM NaCl, 20 mM NaF, Complete EDTA-free protease inhibitor tablets (Roche Diagnostics Corp., Basel, Switzerland) and the phosphatase inhibitor cocktail PhosSTOP (Roche)), the latter two as indicated by the manufacturer's protocol. Equal amounts of protein are diluted in 2× sample buffer. Immunoblots on PVDF (Polyvinyldene Fluoride) membranes are blocked with nonfat milk in tris-buffered saline with 0.05% tween-20 (TBST). The following antibodies are incubated with membranes in 5% nonfat milk in TBST: RPL24 (Proteintech, Chicago, Ill.), Cyclin D1, Rack1, RPL4 (Santa Cruz Biotechnology, Santa Cruz, Calif.), NBS1, GAPDH (EMD Millipore Corporation, Chicago, Ill.), Survivin, β-tubulin, acetyl-lysine, eIF6, acetyl-H2B, H2B, (Cell Signaling Technology, Boston, Mass.), acetyl-tubulin, tubulin (Sigma Aldrich (St. Louis, Mo.))
FIG. 2: RPL24 knockdown reduces breast cancer cell viability while inhibiting cap (eIF4E)-dependent expression of proliferation, survival and genome stability proteins. SKBR3 cells were infected with lentiviruses expressing a GFP control or RPL24-targeting shRNA. After one week of puromycin selection, cells were plated in 96-well plates for viability assays and lysates were taken in parallel for western blots. (a) Western blots were performed on lysates from an equal number of cells using antibodies toward the indicated proteins. (b) Viability assay readings were taken three hours after plating (day 0) and four days after plating (day 4). The day 4 results were normalized for plating efficiency using the day 0 values. Error bars represent three replicate samples.
FIG. 5: Like RPL24 knockdown, histone deacetylase inhibition reduces 80S assembly while increasing 60S retention of eIF6 and reduces expression of cap (eIF4)-dependently translated proteins (a,b) SKBR3 cells were treated with TSA (1 μM, 2 h). […]

RPL24 = assay: LC-MS/MS of RPL24 lysine acetylation (K27, K93) on 60S subunits and polysomes; format: cell-based, human; conditions: SKBR3 cells, TSA 1 μM, 2 h
Protocol: Mass spectrometry studies were performed to identify sites of lysine (K) acetylation within RPL24 induced by histone deacetylase inhibition. Continuous and discontinuous sucrose gradient fractionations were performed to isolate 60S subunits and total polysomes respectively. Polyacrylamide gel electrophoresis was then performed on 60S and polysome samples and RPL24-containing bands were excised, trypsin digested, and subjected to mass spectrometry (LC-MS/MS) (FIG. 6a). Among several detected acetylated RPL24 peptides, two were increased by TSA treatment; TDGKacVFQFLNAK (acetyl-K27) (SEQ ID NO:1) and AITGASLADIM*AKacR (acetyl-K93) (SEQ ID NO:2), where the internal lysines in both peptides are N-acetylated (Kac). As the MS experiments of the 60S polysome were performed after in-gel digestion the methionine residue of the second peptide was predominantly oxidized (M*=M+16), as commonly observed during SDS PAGE processing. In independent, in-solution digestion experiments, the corresponding non-oxidized form of acetylated peptide AITGASLADIMAKacR (SEQ ID NO:3) with correlating MS/MS fragmentation pattern was identified. Representative spectra are shown for TDGKacVFQFLNAK (acetyl-K27) (SEQ ID NO:1) and AITGASLADIM*AKacR (acetyl-K93) (SEQ ID NO:2)) (FIG. 11a,b). In 3 biological replicate experiments, the amount of K27-acetylated RPL24, normalized to total protein concentration within the 60S subunit, was increased at least 2-fold within 2 h of TSA treatment. […] Given the proximity of the T. thermophilia RPL24 K26 site (that resides in a homologous region to human K27) to eIF6 (FIG. 7a), these findings implicate involvement of the TSA induced acetylation of RPL24 at K27 in preventing 40S-60S subunit joining and 60S retention of eIF6.
To prepare polysome samples for mass spectrometry, cells are treated with a histone deacetylase inhibitor and polysome pellets are prepared using a discontinuous sucrose gradient as described above. Protein concentration is determined using the Pierce BCA Protein Assay Kit (Thermo Scientific) and equal amount of protein are trypsin digested. Acetyl-lysine immunoprecipitations are carried out on resultant peptides using an antibody from Cell Signaling Technology. Acetyl-proteins are then eluted, extracted, and desalted.
To determine the acetylation status of 60S subunit proteins, cells are treated with histone deacetylase inhibitor and polysome profiles are performed as described above. The four fractions representing the 60S subunit are identified via western blots for Rack1 and RPL24. […]
Three biological replicates of polysome or 60S samples are then analyzed by LC-MS/MS using a quadrupole time-of-flight (QqTOF) TripleTOF 5600 mass spectrometer (AB SCIEX, Dublin, Calif.) coupled to an Eksigent (Dublin, Calif.) nanoLC Ultra, 2D plus. […]

Question: For `CC(/C=C/C(=O)NO)=C\[C@@H](C)C(=O)c1ccc(N(C)C)cc1` [TSA, trichostatin-A], which “cyclin D1 levels” value ([1]; 8 h treatment) is on record?
Answer: reduced

Question: And the “expression of NBS1 relative to GAPDH and β-tubulin” value ([1]; 24 h treatment)?
Answer: reduced

Question: And the “expression of cyclin D1 relative to GAPDH and β-tubulin” value ([1]; 24 h treatment)?
Answer: reduced

Question: What about the “expression of survivin relative to GAPDH and β-tubulin” value ([1]; 24 h treatment) of the same molecule?
Answer: reduced

Question: And the “RPL24 K93 acetylation within the 60S subunits” value (RPL24)?
Answer: not significantly changed

Question: And the “induction of K93 acetylation within RPL24 associated with polysomes” value (RPL24)?
Answer: 2.5 fold

Question: What about the “induction of RPL24 K27 acetylation within polysomes” value (RPL24) of the same molecule?
Answer: no significant induction

Question: And the “increase of K27-acetylated RPL24 within the 60S subunit, normalized to total protein” value (RPL24; 3 biological replicates)?
Answer: at least 2 fold
